In patent US20080207716A1, “Formulations and Dosing Regiment for Ppar-Alpha Modulators” (Eli Lilly and Company Patent Division, priority 2005, published 2008):

What was measured:
Type in all cases: in vivo, human
[1] = system: healthy obese men and women; assay: Meal tolerance test in the single-dose (SDSS) portion of the clinical study; settings: for Triglyceride AUEC(24-37) geometric mean (95% CI): 24-37 h post dose, placebo 44.6
Excerpt: (§1) A single-blinded, single- (SDSS) and multiple-dose (MDSS), placebo-controlled, dose-escalation study is designed to evaluate the safety, pharmacokinetics, and pharmacodynamics of orally administered study drug in healthy obese men and women. Three different groups of subjects complete a one-step escalation of the study drug dose within Periods 1 and 2 (SDSS). […] The decision to escalate to higher doses is based on the safety assessment of preceding doses. The minimum time between dose escalations within Periods 1 and 2 is one week.
(§2) Safety is assessed throughout the study by physical examination, adverse event monitoring, electrocardiograms, clinical laboratory tests, and vital sign measurements. Pharmacodynamic evaluation includes a postprandial lipid response during the single-dose safety portion. During the multiple-dose safety study, the pharmacodynamic evaluation includes an oral glucose tolerance test, a fasting lipid panel and a postprandial lipid test. The static lipid panel included triglycerides, total cholesterol, low-density lipoprotein cholesterol [LDL-C], high-density lipoprotein cholesterol [HDL-C], Apoliproteins A1, A2, B, and C3 for cholesterol metabolism. C-reactive protein (CRP) and adiponectin are measured as biomarkers for inflammation and peroxisome proliferated agonist receptor (PPAR) gamma activity, respectively. The dynamic lipid tests include post-prandial measurements of glucose and triglycerides.
A meal tolerance test (MTT) was performed from 24 to 37 hours after each single dose during the SDSS portion of a clinical trial conducted substantially as described herein by Example 1 using LY518674 as the study drug. The data are analyzed by calculating an area under the concentration-time curve for triglycerides, nonesterified fatty acids and glucose over the postprandial periods from breakfast to lunch (area under the effect curve [AUEC{24-28}]), after lunch (AUEC[28-37]), and the entire test period (AUEC[24-37]).

healthy obese subjects = assay: Fasting lipid panel, MDSS clinical study (14 days daily dosing, 30 day follow up)
Excerpt: FIG. 1. FIG. 1 illustrates the time profile of percentage change from baseline for LDL-C following the administration of daily oral doses of LY518674 over 14 days and 30 day follow up afterwards, in healthy obese subjects in MDSS of a study conducted substantially as described by Example 1.
(§3) Each of the 3 groups of subjects consist of approximately 9 subjects in a 2:1 ratio of active treatment to placebo, where the order of placebo administration is randomized across both the SDSS and MDSS portions of the study. All 3 groups of subjects shall be scheduled to participate in both SDSS and MDSS portions. However, the SDSS portion is completed and analyzed several months prior to beginning the MDSS (Period 3/4). The 45-day MDSS portion of the original study is designed to test 4 active doses (0.025, 0.1, 1 and 10 mg) administered daily for the first 14 days of the study. The MDSS portion recruits subjects to form 4 groups of subjects. Approximately 36 subjects (9 per dose group) are enrolled into the MDSS portion of the study.
as §2

[2] = system: healthy obese men and women; assay: Lipid pharmacodynamics (LDL-C, ApoB, ApoC), SDSS clinical study
Excerpt: as §1
as §2, with “The dynamic lipid tests include post-prandial measurements of glucose and triglycerides.” left out

[3] = Pharmacokinetics after oral single- and multiple-dose administration
Experimental: (§4) A single-blinded, single- (SDSS) and multiple-dose (MDSS), placebo-controlled, dose-escalation study is designed to evaluate the safety, pharmacokinetics, and pharmacodynamics of orally administered study drug in healthy obese men and women. Three different groups of subjects complete a one-step escalation of the study drug dose within Periods 1 and 2 (SDSS). The design includes a total of 6 active doses (0.1, 1, 10, 30, 60, and 100 mg) to be tested. The decision to escalate to higher doses is based on the safety assessment of preceding doses. The minimum time between dose escalations within Periods 1 and 2 is one week.
as §3
The median time at maximal concentration (tmax) was approximately 0.5 to 1 hour. The exposure appeared dose-proportional within the studied range.

[4] = system: healthy obese men and women; assay: Safety and tolerability assessment, SDSS clinical study; settings: single oral doses 30 and 60 mg
Experimental: as §4
as §2, with “The static lipid panel included triglycerides, total cholesterol, low-density lipoprotein cholesterol [LDL-C], high-density lipoprotein cholesterol [HDL-C], Apoliproteins A1, A2, B, and C3 for cholesterol metabolism.” left out, “The dynamic lipid tests include post-prandial measurements of glucose and triglycerides.” left out

half-life ([3]; both sexes, human, in vivo, oral, as stated in MDSS results): ~10 h
half-life ([3]; both sexes, human, in vivo, oral, as stated in SDSS/PK results): < 10 h
Tmax ([3]; both sexes, human, in vivo, oral, healthy obese subjects, read-out: Median time at maximal concentration (tmax)): 0.5 to 1 h
Time to steady-state exposure ([3]; daily oral dosing): ≤ 2 days
Mean accumulation ratio ([3]; daily oral dosing, steady state): no more than 1.35
Absorption after oral administration ([3]; healthy obese subjects): rapidly absorbed
Pharmacokinetics following single- versus multiple-dose administration ([3]; in vivo): No differences
Exposure versus dose ([3]; within the studied dose range): dose-proportional
Compound: Cc1ccc(Cn2nc(CCCc3ccc(OC(C)(C)C(=O)O)cc3)[nH]c2=O)cc1 [LY518674, Propanoic Acid, 2-[4-[3-[2,5-dihydro-1-[(4-methylphenyl)methyl]-5-oxo-1H-1,2,4-triazol-3-yl]propyl]phenoxy]-2-methyl-]
Lowest dose providing a pharmaceutically desirable effect ([1]; single dose study): 100 µg
Effect on triglyceride (TG) AUEC ([1]; single dose, meal tolerance test 24 to 37 hours post dose): rapid and profound reduction
Dose at which maximum TG AUEC reduction is approached ([1]; single oral dose): approximately 1 mg
Triglyceride AUEC(24-37) geometric mean (95% CI) ([1]; single oral dose 0.01 mg): 37.8 (31.2, 45.8) mmol · hr/L
Triglyceride AUEC(24-37) ratio of geometric means, dose vs. placebo (95% CI) ([1]; single oral dose 0.01 mg, p 0.083): 0.85 (0.70, 1.02) [0.083]
Triglyceride AUEC(24-37) geometric mean (95% CI) ([1]; single oral dose 0.1 mg): 27.6 (23.0, 33.2) mmol · hr/L
Triglyceride AUEC(24-37) ratio of geometric means, dose vs. placebo (95% CI) ([1]; single oral dose 0.1 mg, p <.001): 0.62 (0.52, 0.74) [<.001*]
Triglyceride AUEC(24-37) geometric mean (95% CI) ([1]; single oral dose 1 mg): 23.9 (20.0, 28.6) mmol · hr/L
Triglyceride AUEC(24-37) ratio of geometric means, dose vs. placebo (95% CI) ([1]; single oral dose 1 mg, p <.001): 0.54 (0.45, 0.64) [<.001*]
Triglyceride AUEC(24-37) geometric mean (95% CI) ([1]; single oral dose 10 mg): 24.3 (20.1, 29.5) mmol · hr/L
Triglyceride AUEC(24-37) ratio of geometric means, dose vs. placebo (95% CI) ([1]; single oral dose 10 mg, p <.001): 0.55 (0.45, 0.67) [<.001*]
Triglyceride AUEC(24-37) geometric mean (95% CI) ([1]; single oral dose 30 mg): 20.0 (16.3, 24.5) mmol · hr/L
Triglyceride AUEC(24-37) ratio of geometric means, dose vs. placebo (95% CI) ([1]; single oral dose 30 mg, p <.001): 0.45 (0.37, 0.54) [<.001*]
Triglyceride AUEC(24-37) geometric mean (95% CI) ([1]; single oral dose 60 mg): 25.2 (20.6, 30.7) mmol · hr/L
Triglyceride AUEC(24-37) ratio of geometric means, dose vs. placebo (95% CI) ([1]; single oral dose 60 mg, p <.001): 0.56 (0.46, 0.69) [<.001*]
Lowest dose providing a pharmaceutically desirable effect (healthy obese subjects; MDSS study): 25 µg
Maintenance of pharmacological effect after dosing stopped (healthy obese subjects; after 14 days daily dosing): ~14 days
Time for all parameters to return to baseline after cessation of dosing (healthy obese subjects; after 14 days daily dosing): ≤ 2 weeks
LDL-C change (healthy obese subjects; daily oral doses 0.025, 0.1, 1 and 10 mg for 14 days, all doses similar magnitude): dramatically reduced
ApoB and ApoC change ([2]; SDSS, oral): decreased in a fashion similar to that seen for LDL-C changes
LDL-C change ([2]; single oral dose 0.01 mg): LDL-C reduction consistent with the reduction observed at the higher doses
Tolerability finding prohibiting administration of higher doses [4]: Gastrointestinal intolerance
